“And” between values parts separate entries of the source, which are not always exact repeats. Equal entries are not always repeated. The source made the active and inactive calls. The calls are words filed in the database; no cut-off is given here.
Key:
HGC-27 [1] = assay: Induction of morphological changes in human HGC-27 cells assessed as chromatin condensation incubated for 36 hrs by Giemsa staining based microscopic analysis; assay type: functional, cell-based; conditions: dose 0.1-8 µM
[2] = Cmax in Sprague-Dawley rat at 100 mg/kg, po measured up to 24 hrs by LC-MS/MS analysis; assay type: ADME, organism-based; design: dose 100 mg/kg, time < 24 hrs, route po; conditions: in vivo
HGC-27 [3] = assay: Induction of cell cycle arrest in human HGC-27 cells assessed as downregulation of cyclin B1 expression incubated for 48 hrs by Western blot analysis; assay type: functional, cell-based; conditions: dose 0.1-8 µM
MGC-803 [4] = assay: Induction of morphological changes in human MGC-803 cells assessed as chromatin condensation incubated for 36 hrs by Giemsa staining based microscopic analysis; assay type: functional, cell-based; conditions: dose 2.5-20 µM
MGC-803 [5] = assay: Anti-invasion activity against human MGC-803 cells assessed as inhibition of invasion incubated for 24 hrs by transwell invasion assay; assay type: functional, cell-based; conditions: dose 1.25-10 µM, DDE = dose-dependent effect
MGC-803 [6] = assay: Induction of apoptosis in human MGC-803 cells assessed as late apoptotic cells at 10 uM incubated for 48 hrs by annexin V FITC/propidium iodide staining based flow cytometry (reference value: 4.07 %); assay type: functional
HGC-27 [7] = assay: Induction of cell cycle arrest in human HGC-27 cells assessed as downregulation of cyclin A expression incubated for 48 hrs by Western blot analysis; assay type: functional, cell-based; conditions: dose 0.1-8 µM
HGC-27 [8] = assay: Induction of morphological changes in human HGC-27 cells assessed as cytomembrane foaming incubated for 36 hrs by Giemsa staining based microscopic analysis; assay type: functional, cell-based; conditions: dose 0.1-8 µM
HGC-27 [9] = assay: Anti-invasion activity against human HGC-27 cells assessed as inhibition of invasion incubated for 24 hrs by transwell invasion assay; assay type: functional, cell-based; conditions: dose 0.05-2 µM, DDE = dose-dependent effect
HGC-27 [10] = assay: Antiproliferative activity against human HGC-27 cells measured after 24 hrs by […]; assay type: functional, cell-based; conditions: HGC-27, 24 h
[11] = Half life in Sprague-Dawley rat at 100 mg/kg, po measured up to 24 hrs by LC-MS/MS analysis; assay type: ADME, organism-based; conditions: in vivo
HGC-27 [12] = assay: Induction of apoptosis in human HGC-27 cells assessed as reduction in caspase-3 level incubated for 48 hrs by Western blot analysis; assay type: functional, cell-based; conditions: dose 0.1-8 µM, DDE = dose-dependent effect
HGC-27 [13] = assay: Induction of apoptosis in human HGC-27 cells assessed as upregulation in cytochrome c expression at 0.5 to 8 uM incubated for 48 hrs by Western blot analysis; assay type: functional, cell-based; conditions: dose 0.5-8 µM
MGC-803 [14] = assay: Induction of apoptosis in human MGC-803 cells assessed as late apoptotic cells at 5 uM incubated for 48 hrs by annexin V FITC/propidium iodide staining based flow cytometry (reference value: 4.07 %); assay type: functional
[15] = MRT (0 to t) in Sprague-Dawley rat at 100 mg/kg, po measured up to 24 hrs by LC-MS/MS analysis; assay type: ADME, organism-based; conditions: in vivo
HGC-27 [16] = assay: Induction of apoptosis in human HGC-27 cells assessed as reduction in Bcl-2 level incubated for 48 hrs by Western blot analysis; assay type: functional, cell-based; conditions: dose 0.1-8 µM, DDE = dose-dependent effect
MGC-803 [17] = assay: Induction of apoptosis in human MGC-803 cells assessed as early apoptotic cells at 5 uM incubated for 48 hrs by annexin V FITC/propidium iodide staining based flow cytometry (reference value: 0.42 %); assay type: functional
MGC-803 [18] = assay: Induction of apoptosis in human MGC-803 cells assessed as viable cells at 10 uM incubated for 48 hrs by annexin V FITC/propidium iodide staining based flow cytometry (reference value: 94.4 %); assay type: functional; conditions: read-out: Activity
HGC-27 [19] = assay: Induction of apoptosis in human HGC-27 cells assessed as reduction in caspase-9 level incubated for 48 hrs by Western blot analysis; assay type: functional, cell-based; conditions: dose 0.1-8 µM, DDE = dose-dependent effect
HGC-27 [20] = assay: Induction of cell cycle arrest in human HGC-27 cells assessed as downregulation of CDK1 expression incubated for 48 hrs by Western blot analysis; assay type: functional, cell-based; conditions: dose 0.1-8 µM
HGC-27 [21] = assay: Induction of cell cycle arrest in human HGC-27 cells assessed as downregulation of CDK2 expression incubated for 48 hrs by Western blot analysis; assay type: functional, cell-based; conditions: dose 0.1-8 µM
HGC-27 [22] = assay: Induction of cell cycle arrest in human HGC-27 cells assessed as reduction in accumulation of cells at G2/M phase at 0.5 to 8 uM incubated for 24 hrs by PI staining based flow cytometry analysis; assay type: functional; conditions: dose 0.5-8 µM
MGC-803 [23] = assay: Inhibition of cell migration in human MGC-803 cells measured after 24 hrs by wound healing assay; assay type: functional, cell-based; conditions: dose 1.25-10 µM, DDE = dose-dependent effect
MGC-803 [24] = assay: Induction of apoptosis in human MGC-803 cells assessed as necrotic cells at 5 uM incubated for 48 hrs by annexin V FITC/propidium iodide staining based flow cytometry (reference value: 1.06 %); assay type: functional
MGC-803 [25] = assay: Induction of morphological changes in human MGC-803 cells assessed as cytomembrane foaming incubated for 36 hrs by Giemsa staining based microscopic analysis; assay type: functional, cell-based; conditions: dose 2.5-20 µM
HGC-27 [26] = assay: Inhibition of cell migration in human HGC-27 cells measured after 24 hrs by wound healing assay; assay type: functional, cell-based; conditions: dose 0.05-2 µM, DDE = dose-dependent effect
[27] = AUC (0 to t) in Sprague-Dawley rat at 100 mg/kg, po measured up to 24 hrs by LC-MS/MS analysis; assay type: ADME, organism-based; design: dose 100 mg/kg, time < 24 hrs, route po; conditions: in vivo
MGC-803 [28] = assay: Induction of apoptosis in human MGC-803 cells assessed as early apoptotic cells at 10 uM incubated for 48 hrs by annexin V FITC/propidium iodide staining based flow cytometry (reference value: 0.42 %); assay type: functional
MGC-803 [29] = assay: Induction of apoptosis in human MGC-803 cells assessed as necrotic cells at 10 uM incubated for 48 hrs by annexin V FITC/propidium iodide staining based flow cytometry (reference value: 1.06 %); assay type: functional
MGC-803 [30] = assay: Induction of apoptosis in human MGC-803 cells assessed as viable cells at 5 uM incubated for 48 hrs by annexin V FITC/propidium iodide staining based flow cytometry (reference value: 94.4 %); assay type: functional; conditions: read-out: Activity
[31] = Tmax in Sprague-Dawley rat at 100 mg/kg, po measured up to 24 hrs by LC-MS/MS analysis; assay type: ADME, organism-based; conditions: in vivo
HGC-27 [32] = assay: Induction of apoptosis in human HGC-27 cells assessed as upregulation in cleaved PARP expression at 0.1 to 1.6 uM incubated for 48 hrs by Western blot analysis; assay type: functional, cell-based; conditions: dose 0.1-1.6 µM
HGC-27 [33] = assay: Induction of apoptosis in human HGC-27 cells assessed as upregulation in cytochrome c expression at 0.1 to 1.6 uM incubated for 48 hrs by Western blot analysis; assay type: functional, cell-based; conditions: dose 0.1-1.6 µM
[34] = Toxicity in BALB/c mouse xenografted with human HGC-27 cells assessed as body weight loss at 75 to 150 mg/kg, po bid administered for 19 days and measured every other day; assay type: organism-based; conditions: in vivo, 456 h, dose 75-150 mg/kg, time 19 day
HGC-27 [35] = assay: Induction of apoptosis in human HGC-27 cells assessed as necrotic cells at 0.4 uM incubated for 48 hrs by annexin V FITC/propidium iodide staining based flow cytometry (reference value: 1.24 %); assay type: functional
in vitro = conditions: human, WI-38 cells
Description: Cytotoxicity against human WI-38 cells assessed as inhibition of cell growth incubated for 72 hrs by MTT assay

[36] = Toxicity in BALB/c mouse xenografted with human HGC-27 cells assessed as red blood cell distribution width at 150 mg/kg, po bid for 19 days; assay type: organism-based; conditions: in vivo, 456 h, time 19 day
[37] = Toxicity in BALB/c mouse xenografted with human HGC-27 cells assessed as monocyte level at 75 mg/kg, po bid for 19 days; assay type: organism-based; conditions: in vivo, 456 h, time 19 day
[38] = Toxicity in BALB/c mouse xenografted with human HGC-27 cells assessed as lymphocyte level at 150 mg/kg, po bid for 19 days; assay type: organism-based; conditions: in vivo, 456 h, time 19 day

SMILES | Activity (HGC-27 [1]) | Cmax [2] [µg/mL] | Activity (HGC-27 [3]) | Activity (MGC-803 [4]) | Activity (MGC-803 [5]) | Activity (MGC-803 [6]) [%] | Activity (HGC-27 [7]) | Activity (HGC-27 [8]) | Activity (HGC-27 [9]) | IC50 (HGC-27 [10]) [µM] | half-life [11] [h] | Activity (HGC-27 [12]) | Activity (MGC-803 [14]) [%] | MRT last at 24 h [15] [h] | Activity (HGC-27 [16]) | Activity (MGC-803 [17]) [%] | viability at 10 µM (MGC-803 [18]) [%] | Activity (HGC-27 [19]) | Activity (HGC-27 [20]) | Activity (HGC-27 [21]) | also measured
O=C(NCc1ccc(NC(=O)c2ccccc2N2CCCC2)cc1)OCc1cccnc1 | Active | 4.09 | Active | Active | Dde | 18.2 | Active | Active | Dde | 1.84 | 1.56 | Dde | 17 | 1.88 | Dde | 15.5 | 59.4 | Dde | Active | Active | Activity (HGC-27 [13]): Active; Activity (HGC-27 [22]): Active; inhibition (MGC-803 [23]): Dde; Activity (MGC-803 [24]): 2.47%; Activity (MGC-803 [25]): Active; inhibition (HGC-27 [26]): Dde; AUC(0-t) at 24 h [27]: 4.72 µg·h/mL; Activity (MGC-803 [28]): 19.1%; Activity (MGC-803 [29]): 3.27%; viability at 5 µM (MGC-803 [30]): 65%; Tmax [31]: 0.5 h
O=C(NCc1ccc(NC(=O)c2cc(F)ccc2N2CCCC2)cc1)OCc1cccnc1 | Active | 3.98 | Active | Active | Dde | 8.86 | Active | Active | Dde | 0.28 | 2.5 | Dde | 10.4 | 4.25 | Dde | 3.23 | 82 | Dde | Active | Active | Activity (HGC-27 [32]): Active; Activity (HGC-27 [33]): Active; Activity [34]: Non-Toxic; Activity (HGC-27 [35]): 5.43%; inhibition (MGC-803 [23]): Dde; Activity (MGC-803 [24]): 5.22%; Activity (MGC-803 [25]): Active; IC50 at 72 h (in vitro): > 100 µM; inhibition (HGC-27 [26]): Dde; Activity [36]: 15.33%; AUC(0-t) at 24 h [27]: 7.31 µg·h/mL; Activity [37]: 1.57 10^9/L and 2.03%; Activity (MGC-803 [28]): 7.31%; Activity (MGC-803 [29]): 1.84%; Activity [38]: 5.77 10^9/L and 7.2%; viability at 5 µM (MGC-803 [30]): 81.1%; Tmax [31]: 1.2 h

Reference: ChEMBL document CHEMBL5143508, “Design, synthesis and biological evaluation of novel o-aminobenzamide derivatives as potential anti-gastric cancer agents in vitro and in vivo” (Eur J Med Chem, 2022)
